From article PMC9578396, “Intrinsic Antibacterial Activity of Xeruborbactam In Vitro: Assessing Spectrum and Mode of Action” (Antimicrobial Agents and Chemotherapy, 2022)
Converted amounts (≈) assume the structure as drawn.

What was measured:
PBP1a [1] = molecular target: T1, PBP1a (Escherichia coli, UniProt P02918); set-up: method as in PMID 18250190; conditions: read-out: IC50, PBP1a; value in parentheses; E. coli MC1400; cited from earlier work
T1 construct: Five microliters of total bacterial membrane preparation was mixed with 5 μL of a test compound; endogenous in cells; host or cells: Escherichia coli ECM5497 (MG1655), total membrane preparation

PBP1a [2] = molecular target: PBP1a (Klebsiella pneumoniae, UniProt A0A0H3GZF1); set-up: method as in PMID 29712652; conditions: read-out: IC50, PBP1a; value in parentheses; K. pneumoniae ATCC 43816; cited from earlier work
Serratia marcescens = assay: Broth microdilution MIC (CLSI), Serratia marcescens; format: cell-based; conditions: 10 isolates
Description: (§1) Bacterial isolates were subjected to broth microdilution susceptibility testing, performed according to Clinical and Laboratory Standards Institute (CLSI) methods ([46]), using panels prepared in-house. Meropenem was purchased from Sandoz, and all other antibiotics were from Sigma-Aldrich. Xeruborbactam was synthesized at Qpex Biopharma, San Diego, CA. Avibactam was purchased from eNovation Chemicals LLC, Bridgewater, NJ, USA; zidebactam was from MedKoo Biosciences, Inc., Morrisville, NC, and nacubactam was from Advanced ChemBlocks, Hayward, CA. Durlobactam was synthesized at Acme Bioscience, Palo Alto, CA, USA.

E. coli strain ECM5497 = conditions: xeruborbactam at ≥2× MIC, 48 h at 37°C
Experimental: (§2) Beta-lactamase-negative strains of E. coli (strain ECM5497), A. baumannii (strain AB1007), and K. pneumoniae (strain KPM1026a) were used in resistance development studies. […] […] Single colonies from xeruborbactam-containing plates were grown twice on a nonselective medium before their antimicrobial-resistance levels were assessed. For K. pneumoniae KPM1026a, several independent cultures were used in resistance studies.

[3] = test system: A. baumannii strain AB1007; conditions: xeruborbactam at ≥2× MIC, 48 h at 37°C
Experimental: as §2

[4] = test system: strain PAM1154 of P. aeruginosa; assay: Minimal bactericidal concentration (MBC), P. aeruginosa; format: cell-based; conditions: Pseudomonas aeruginosa
[5] = test system: K. pneumoniae strain KPM1026a; assay: Fluorescence microscopy, cellular morphology; format: cell-based, Klebsiella pneumoniae; conditions: treated at 1× and 2× MIC, 1 to 2 h, 30°C
Experimental: Single colonies of K. pneumoniae strain KPM1026a, A. baumannii strain ATCC 17978, and P. aeruginosa strain PAM1154 were picked from LB agar plates, inoculated in cation-adjusted Mueller-Hinton broth (CA-MHB), and incubated overnight at 30°C with rolling. Overnight cultures were diluted into fresh CA-MHB and incubated at 30°C, with rolling, until they reached an OD600 of ≈0.12 to 0.15 (equivalent to ~2 × 10^8 CFU/mL). Samples were then treated with compounds and incubated at 30°C, with rolling. After 1 or 2 h of treatment, cells were collected and stained with a dye mix containing FM4-64 (1 μg/mL), DAPI (4′,6-diamidino-2-phenylindole) (2 μg/mL), and SYTOX green (0.5 μM) (Molecular Probes, Invitrogen, or Thermo Fisher Scientific). Cells were transferred onto an agarose pad containing 1.2% agarose and 20% LB medium for microscopy. Microscopy was performed as previously described ([34]).

PBP2 = molecular target: T2, PBP2 (Pseudomonas aeruginosa, UniProt Q9X6V3); assay: Gel-based Bocillin FL competition PBP binding assay; conditions: P. aeruginosa PAM3034 membranes; Bocillin FL step 0°C for xeruborbactam, 30°C for beta-lactams; read-out: Relative binding IC50, PBP2
T2 construct: endogenous in cells
Experimental: Ten milliliters of overnight bacterial culture was inoculated in 1 L of LB medium and grown to an OD600 of 0.7 to 0.9. The cell pellet was washed once with 50 mL of solution containing 100 mM Na-phosphate at pH 7.0 and 100 mM NaCl and resuspended in 10 mL of the same buffer with one tablet of EDTA-free mini-protease inhibitor and 10 mg of lysozyme. Cell suspensions were incubated for 45 min at 37°C, and then 200 μL of DNase I was added along with MgSO4 (to a final concentration of 10 mM), followed by three cycles of freeze-thawing (10 min and 20 min, respectively). Four cycles of sonication at maximum power were performed next, each cycle lasting for 30 s with 1 min on ice between cycles. The cell suspension was centrifuged at 12,000 × g for 10 min at 4°C. The supernatant was collected and centrifuged at 100,000 × g for 45 min at 4°C. The pellet was washed three times with 10 mL of 100 mM Na-phosphate, pH 7.0, by resuspension and subsequent centrifugation at 100,000 × g for 10 min at 4°C. The pellet was finally resuspended in 1.5 mL of 100 mM Na-phosphate, pH 7.0, and passed several times through a Dounce homogenizer (tight pestle). Membrane preparations were aliquoted and kept at −80°C.
Five microliters of total bacterial membrane preparation was mixed with 5 μL of a test compound at a desired concentration in 100 mM Na-phosphate buffer, pH 7.0. Incubation of bacterial membrane preparations with control beta-lactams was performed for 10 min at 30°C; xeruborbactam was incubated with membrane preparations for 1 h at 30°C. Five microliters of 150 μM Bocillin FL fluorescent probe (Thermo Fisher Scientific) was added, and the reaction mixture was incubated for an additional 10 min at 30°C in the case of beta-lactams or for 20 min on ice (0°C) in the case of xeruborbactam. […] At the end of the incubation step, 15 μL of 2× SDS sample loading buffer was added, and the reaction mixture was incubated for 5 min at 95°C. Twenty-five microliters of the reaction mixture was then loaded on an 8% SDS Tris-glycine gel (Thermo Fisher Scientific). At the end of the run, the gel was briefly rinsed with water and fixed in 10% acetic acid, 40% methanol for 20 min. After an additional wash in water for 30 min, the gel was scanned on a Typhoon Trio+ Imager using a blue laser filter (excitation, 488 nm, and emission, 520 nm). Densitometry of the gel images was performed using ImageQuant software (Molecular Dynamics). IC50 values were calculated with Prism software (GraphPad).

Proteus mirabilis = assay: Broth microdilution MIC (CLSI), Proteus mirabilis; format: cell-based; conditions: 23 isolates
Description: as §1

[6] = test system: strain ECM5497 of E. coli; assay: Minimal bactericidal concentration (MBC), E. coli; format: cell-based; conditions: Escherichia coli
Klebsiella oxytoca = assay: Broth microdilution MIC (CLSI), Klebsiella oxytoca; format: cell-based
Description: as §1

[7] = test system: strain KPM1026a of K. pneumoniae; assay: Minimal bactericidal concentration (MBC), K. pneumoniae; format: cell-based; conditions: Klebsiella pneumoniae
[8] = Klebsiella oxytoca, 23 isolates

T2 sequence (Q9X6V3 1-646): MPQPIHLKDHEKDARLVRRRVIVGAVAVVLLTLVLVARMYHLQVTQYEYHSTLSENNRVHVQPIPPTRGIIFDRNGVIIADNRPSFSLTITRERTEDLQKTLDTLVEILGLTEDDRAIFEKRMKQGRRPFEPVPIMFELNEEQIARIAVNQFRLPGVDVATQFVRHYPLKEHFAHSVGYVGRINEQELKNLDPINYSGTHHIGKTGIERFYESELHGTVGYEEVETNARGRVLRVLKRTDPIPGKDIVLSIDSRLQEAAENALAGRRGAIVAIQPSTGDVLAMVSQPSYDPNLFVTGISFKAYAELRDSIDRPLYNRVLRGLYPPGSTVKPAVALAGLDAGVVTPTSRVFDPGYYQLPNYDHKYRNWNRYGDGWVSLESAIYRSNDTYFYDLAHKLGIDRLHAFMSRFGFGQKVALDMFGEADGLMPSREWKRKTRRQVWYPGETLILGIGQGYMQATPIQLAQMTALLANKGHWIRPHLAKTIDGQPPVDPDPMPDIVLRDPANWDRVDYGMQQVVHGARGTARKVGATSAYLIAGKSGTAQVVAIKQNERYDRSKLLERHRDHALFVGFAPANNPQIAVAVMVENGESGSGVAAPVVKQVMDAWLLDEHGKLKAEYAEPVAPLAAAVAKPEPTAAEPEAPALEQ
T1 sequence (P02918 whole entry): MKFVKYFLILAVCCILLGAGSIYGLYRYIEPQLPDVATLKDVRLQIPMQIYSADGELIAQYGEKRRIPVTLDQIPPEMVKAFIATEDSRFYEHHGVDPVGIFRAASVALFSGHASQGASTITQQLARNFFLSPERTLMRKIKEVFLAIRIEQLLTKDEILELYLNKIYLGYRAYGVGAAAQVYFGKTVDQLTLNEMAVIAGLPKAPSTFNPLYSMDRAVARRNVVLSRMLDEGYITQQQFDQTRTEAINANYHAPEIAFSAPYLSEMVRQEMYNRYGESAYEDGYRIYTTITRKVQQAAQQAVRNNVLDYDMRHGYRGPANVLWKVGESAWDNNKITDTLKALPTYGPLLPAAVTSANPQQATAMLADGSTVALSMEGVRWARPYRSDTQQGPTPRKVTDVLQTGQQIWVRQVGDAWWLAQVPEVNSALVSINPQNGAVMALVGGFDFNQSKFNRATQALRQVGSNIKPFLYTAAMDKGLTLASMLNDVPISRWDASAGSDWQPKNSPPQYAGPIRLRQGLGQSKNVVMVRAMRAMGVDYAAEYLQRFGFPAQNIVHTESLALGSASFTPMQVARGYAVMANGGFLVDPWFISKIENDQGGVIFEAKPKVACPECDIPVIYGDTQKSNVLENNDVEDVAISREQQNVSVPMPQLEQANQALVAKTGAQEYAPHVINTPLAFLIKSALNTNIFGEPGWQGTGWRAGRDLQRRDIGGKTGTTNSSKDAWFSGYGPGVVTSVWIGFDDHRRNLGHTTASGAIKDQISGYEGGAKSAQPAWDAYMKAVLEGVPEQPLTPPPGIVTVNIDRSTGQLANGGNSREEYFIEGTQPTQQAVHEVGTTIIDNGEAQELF
Sequence of PBP1a (Klebsiella pneumoniae, UniProt A0A0H3GZF1) (A0A0H3GZF1 entry or part of it): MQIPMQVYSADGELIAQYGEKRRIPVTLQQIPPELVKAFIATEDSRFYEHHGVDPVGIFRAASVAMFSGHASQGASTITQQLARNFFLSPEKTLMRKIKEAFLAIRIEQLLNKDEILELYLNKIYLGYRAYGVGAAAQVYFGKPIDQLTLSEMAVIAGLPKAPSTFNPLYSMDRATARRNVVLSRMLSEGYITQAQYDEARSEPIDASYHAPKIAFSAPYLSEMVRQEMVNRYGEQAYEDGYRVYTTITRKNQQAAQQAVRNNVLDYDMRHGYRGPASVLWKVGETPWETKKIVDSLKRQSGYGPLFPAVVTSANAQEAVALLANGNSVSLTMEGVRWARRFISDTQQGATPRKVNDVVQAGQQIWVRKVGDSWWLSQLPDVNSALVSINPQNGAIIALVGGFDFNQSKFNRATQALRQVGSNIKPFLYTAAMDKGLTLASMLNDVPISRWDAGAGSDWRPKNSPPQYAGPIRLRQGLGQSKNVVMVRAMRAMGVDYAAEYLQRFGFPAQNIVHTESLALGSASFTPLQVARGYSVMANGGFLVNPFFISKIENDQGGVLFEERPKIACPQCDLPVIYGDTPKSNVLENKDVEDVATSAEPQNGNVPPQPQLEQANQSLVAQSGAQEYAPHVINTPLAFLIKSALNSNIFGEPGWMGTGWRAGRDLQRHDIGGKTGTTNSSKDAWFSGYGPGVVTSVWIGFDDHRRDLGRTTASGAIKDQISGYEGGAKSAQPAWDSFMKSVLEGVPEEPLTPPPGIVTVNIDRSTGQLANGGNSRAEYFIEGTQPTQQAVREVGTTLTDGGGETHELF

SMILES | IC50 (PBP1a [1]) [µM] | IC50 (PBP1a [2]) [µM] | MIC50 (Serratia marcescens) [µg/mL] | MIC90 (Serratia marcescens) [µg/mL] | MIC range (Serratia marcescens) [µg/mL] | frequency of resistance (FOR) (E. coli strain ECM5497) | frequency of resistance (FOR) [3] | MBC [4] [µg/mL] | cellular morphology [5] | IC50 (PBP2) [µM] | MIC50 (Proteus mirabilis) [µg/mL] | MIC90 (Proteus mirabilis) [µg/mL] | MBC [6] [µg/mL] | MIC (Klebsiella oxytoca; Klebsiella oxytoca isolates, read-out: highest MIC observed) [µg/mL] | MIC50 (Klebsiella oxytoca; [8]) [µg/mL] | MIC90 (Klebsiella oxytoca; [8]) [µg/mL] | MIC range (Klebsiella oxytoca; [8]) [µg/mL] | MBC [7] [µg/mL]
C[C@@H](O)[C@H]1C(=O)N2C(C(=O)O)=C(S[C@@H]3CN[C@H](C(=O)N(C)C)C3)[C@H](C)[C@H]12 [Meropenem] | 4.4 | 5.2 |  |  |  |  |  |  |  |  |  |  |  |  |  |  |  | 
O=C(O)c1c(F)ccc2c1OB(O)[C@@H]1C[C@H]21 [Xeruborbactam] |  |  | 32 (≈ 144 µM) | 32 (≈ 144 µM) | 16 to 64 | < 2 × 10^−9 | < 2 × 10^−9 | 32 (≈ 144 µM) | increased cell length relative to that of the untreated controls and bulges that developed at midcell | 370 ± 120 | 16 (≈ 72.1 µM) | 32 (≈ 144 µM) | 8 (≈ 36 µM) | 32 (≈ 144 µM) | 8 (≈ 36 µM) | 16 (≈ 72.1 µM) | 8 to 32 | 16 (≈ 72.1 µM)
